Measurements: patent publication US10072021B2, “Compound for inhibiting binding between DX2 protein and P14/ARF protein, and pharmaceutical composition for treating or preventing cancer disease containing same as effective ingredient” (PUSAN NATIONAL UNIVERSITY INDUSTRY-UNIVERSITY COOPERATION …, priority 2014, dated 2018)

Assays:
lung tumors of DK mice = experiment: In vivo anticancer effect in DK mice (lung tumors); settings: DK mice, non-toxic dose of Adriamycin, FIG. 10B
Protocol: All experimental procedures using laboratory animals were approved by the animal care committee of Pusan National University. DX2 (C57/BL6) and K-RasLA2 (C57/BL6) mice were obtained from Dr. Kim, Sung-Hoon and Professor. Choi, Kang-Ryeol (Yonsei University), respectively, and double Tg mice were obtained by cross-breeding of DX2 and K-RasLA2 mice. Before experiment, all mice were maintained under temperature- and light-controlled conditions (20-23° C., 12 h/12 h light/dark cycle), and provided autoclaved food and water.
Every weeks, tumor volume and body weight were measured.
After dissection of mice, tissues were fixed using 10% formalin (in PBS) for 24 hours, and embedded in paraffin blocks according to a basic tissue processing procedure. For histological analysis, embedded tissues were cut for […] by Leica microtome (Wetzlar, Germany) and transferred onto adhesive-coated slides (Marienfeld laboratory glassware, Germany). After deparaffin and rehydration, sections were then stained with H&E for routine examination.
For IHC staining, rehydrated tissue sections were incubated with antibodies to Ki-67 (Abcam, ab15580), pan-keratin (Sigma, C2931), pro-surfactant C (Millipore, AB3786), NSE (DAKO, IS612), and HER2/Neu (DAKO, A0458) for a reaction. Antigen retrieval was performed using 10 mM sodium citrate (pH 6.0) twice at a temperature of 95° C. for 10 minutes each, and endogenous peroxidase activity was blocked with 3% […] for 10 min. Then, the slides were dehydrated following a standard procedure and sealed with cover glass using mounting solution. TUNEL reaction was done as described in the manual for In Situ Cell Death Detection Kit, POD (Hoffmann-La Roche Ltd, Basel, Swizerland).
To evaluate tumor incidence, lung tissues of each mouse was fixed and embedded in paraffin. 5 sections from each mouse were examined by 3 independent investigator, who counted tumor. In addition, tumor area was calculated by tumor occupied area in total lung area using photoshop software.

H446 xenograft = tested on: H446 xenograft
Protocol: DK (5 month-old, N=6) mice were administered with carrier, SLCB050 (5 or 10 mg/kg), Adriamycin (1, 2.5, or 5 mg/kg), and a combination of SLCB050 and Adriamycin by intraperitoneal (i.p.) injection. After termination of the experiment of each group, mice were dissected and isolated lung tissues. For xenograft, 1×10^7 H446 cells (ATCC) were seeded in nude ice. After 4 weeks, tumor bearing mice were injected with Adriamycin, […], or a combination thereof for 6 weeks. Every weeks, tumor volume and body weight were measured.

DX2-p14/ARF binding = molecular target: T1, DX2-p14/ARF binding (Homo sapiens, UniProt Q13155); experiment: GST pull-down assay of DX2-p14/ARF binding; settings: FIG. 2A, 3A, 3D, 3E
T1 construct: made in house; host or cells: E. coli BL21(DE3) for GST-p14/ARF; DX2 from 'cell lysate or recombinant protein'
T1 sequence (Q13155 1-251 isoform Q13155-2): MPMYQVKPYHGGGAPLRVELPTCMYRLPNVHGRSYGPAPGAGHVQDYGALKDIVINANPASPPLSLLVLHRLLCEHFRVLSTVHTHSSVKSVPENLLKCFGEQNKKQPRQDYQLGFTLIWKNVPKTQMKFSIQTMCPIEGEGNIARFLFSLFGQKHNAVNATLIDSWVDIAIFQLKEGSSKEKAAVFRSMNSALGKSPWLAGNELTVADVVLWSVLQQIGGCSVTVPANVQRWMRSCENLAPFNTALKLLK
From the text: (§1) Through GST pull-down assays, more specific binding inhibitors were selected among the previously screened candidate drugs as DX2-p14/ARF binding inhibitors. That is, a p14/ARF fragment (full-length) was ligated into EcoRI and Hind II sites of pGEX-TEV vector, which is a modified vector by adding a TEV protease cleavage site to pGEX-4T1. The recombinant proteins were then expressed in E. coli strain BL21(DE3) as GST-fusion proteins. The proteins were purified by glutathione affinity chromatography.
(§2) To address direct binding between the two proteins, agarose-bead conjugated GST (negative control) or GST-target protein was incubated with cell lysate or recombinant protein in radioimmunoprecipitation assay (RIPA) buffer (NaCl, 25 mM Tris-Cl, 1% NP-40, 1% sodium deoxycholate, 0.1% SDS, protease inhibitor mixture) for 1 hour at a temperature of 4° C. for a reaction.

p53-p14/ARF interaction = molecular target: T2, p53-p14/ARF interaction (Homo sapiens, UniProt P04637+Q8N726); experiment: GST pull-down assay, selectivity: p53-p14/ARF interaction; format: binding; settings: FIG. 3D, 3E
T2 construct: a p14/ARF fragment (full-length) was ligated into EcoRI and Hind II sites of pGEX-TEV vector; made in house; host or cells: E. coli BL21(DE3) for GST-p14/ARF
T2 sequence (Q8N726 whole entry, the tested form may be a part): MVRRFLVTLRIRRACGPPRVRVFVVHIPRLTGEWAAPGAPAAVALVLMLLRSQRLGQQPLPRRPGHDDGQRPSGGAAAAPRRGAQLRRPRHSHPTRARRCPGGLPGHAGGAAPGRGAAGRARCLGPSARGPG
T2 sequence (P04637 whole entry, the tested form may be a part): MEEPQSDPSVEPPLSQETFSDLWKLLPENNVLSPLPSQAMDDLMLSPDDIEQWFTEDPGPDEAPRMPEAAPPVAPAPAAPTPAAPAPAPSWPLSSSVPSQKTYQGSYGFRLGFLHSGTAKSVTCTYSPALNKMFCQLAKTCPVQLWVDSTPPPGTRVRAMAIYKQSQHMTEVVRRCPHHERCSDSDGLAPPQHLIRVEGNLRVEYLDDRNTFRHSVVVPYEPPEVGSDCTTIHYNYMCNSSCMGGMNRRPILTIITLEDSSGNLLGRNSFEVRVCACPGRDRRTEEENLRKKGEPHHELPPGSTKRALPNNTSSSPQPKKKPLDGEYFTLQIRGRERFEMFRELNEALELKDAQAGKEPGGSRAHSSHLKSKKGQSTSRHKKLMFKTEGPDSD
From the text: as §1, §2

[1] = tested on: H128 cells (SCLC cell line); experiment: MTT viability of H128 cells; format: cell-based, human; settings: MTT assay, FIG. 7
Protocol: By MTT assay, anticancer effects were confirmed based on viability of tumor cells. That is, cells were incubated in 0.5 mg/ml of MTT solution for 4 hours at a temperature of 37° C. for a reaction, and then, formazen products formed therefrom were dissolved in dimethyl sulfoxide (DMSO). Then, absorbance thereof was measured at 540 nm by using a spectrometer.

Structure (SMILES)	anticancer effect, Adriamycin alone (lung tumors of DK mice)	toxicity, Adriamycin alone (H446 xenograft; Adriamycin 5 mg/kg, three times/week)	tumor growth, Adriamycin alone (H446 xenograft; Adriamycin 5 mg/kg, three times/week, FIG. 9B)	response of H446 xenograft model (H446 xenograft; single agents, FIG. 9A)	inhibitory effect on DX2-p14/ARF binding (DX2-p14/ARF binding)	effect on interaction of p53-p14/ARF (p53-p14/ARF interaction)	viability of H128 cells [1]	melting point
COc1cccc2c1C(=O)c1c(O)c3c(c(O)c1C2=O)C[C@@](O)(C(=O)CO)C[C@@H]3O[C@H]1C[C@H](N)[C@H](O)[C@H](C)O1 [Adriamycin, reference compound]	did not show anticancer effect	evoked rapid weight loss and death	tumor growth was suppressed within 4 weeks	resistant	–	–	–	–
CC1(C)Oc2cc3oc(=O)ccc3cc2C[C@H]1OC(=O)N/C=C/c1ccco1 [HJH141204, (7R)-(−)-2-(Furan-2-yl)vinylcarbamic Acid, 8,8-dimethyl-2-oxo-6,7-dihydro-2H,8H-pyrano[3,2-g]chromen-7-yl-ester]	–	–	–	–	showed inhibitory effects on DX2-p14/ARF binding	did not affect the interaction of p53-p14/ARF	reduced the viability of H128 cells in a dose-dependent manner	–
CC1(C)Oc2cc3oc(=O)ccc3cc2C[C@@H]1OC(=O)N/C=C/c1ccco1 [HJH141206, (7S)-(+)-2-(Furan-2-yl)vinylcarbamic acid, 8,8-dimethyl-2-oxo-6,7-dihydro-2H, 8H-pyrano[3,2-g]chromen-7-yl-ester]	–	–	–	–	showed inhibitory effects on DX2-p14/ARF binding	did not affect the interaction of p53-p14/ARF	reduced the viability of H128 cells in a dose-dependent manner	58.5 °C
COc1cc(/C=C/C(=O)O[C@H]2Cc3cc4ccc(=O)oc4cc3OC2(C)C)ccc1O [SLCB36, reference compound]	–	–	–	–	did not show inhibitory effect on both binding	did not show inhibitory effect on both binding	did not significantly affect the cell viability	–
